Literature values as cited in patent US8377979B2, “Pharmaceutical formulation containing phenytoin sodium and magnesium stearate” (Taro Pharmaceuticals North America, Inc., priority 2005, dated 2013).

Experiments:
[1] = gastrointestinal pH range of 1 to 8
[2] = man, oral administration

In the case of `O=C1NC(=O)C(c2ccccc2)(c2ccccc2)N1` [phenytoin, 5,5-diphenyl-2,4-imidazolidinedione], the solubility [1] is listed as “practically insoluble” and the “plasma half-life, average” value [2] is listed as 22 h.
